# Literature values in US20230190776A1, “ENCAPSULATION OF BIOACTIVE INGREDIENTS BY MULTIPLEX EMULSION” (The Board of Regents of the University of Texas System, priority 2021, published 2023).
# Conditions: up to 14 weeks of administrations; species not given
smiles,measurement,value
O=C1CCC[C@@H]2[C@H]3CCC[N+]4([O-])CCC[C@@H](CN12)[C@@H]34 (stereo partly shown) [Oxymatrine],lethal dose,around 300 mg/kg
